Paper PMC7076525, “Pharmacokinetics and Intestinal Metabolism of Compound K in Rats and Mice” (Pharmaceutics, 2020)
In brackets after ≈: the same amount, converted by molar mass. Several values for one entry are separate records, joined by “and”; a condition that tells them apart may be missing. Equal entries are not always repeated. Where two headings read alike, the source gives them in different places.

Legend:
[1] = Pharmacokinetic study after intravenous compound K (2 mg/kg) in SD rats: plasma, feces, urine
[2] = set-up: method as in PMID 16302287; conditions: rats, cited from earlier work
[3] = Tissue distribution study after intravenous compound K (2 mg/kg) in SD rats; assay type: in vivo; conditions: compound K IV 2 mg/kg
Method: (§1) ICR mice and SD rats received compound K intravenously at a single dose of 2 mg/kg via tail vein and were returned to the metabolic cage with water and chow ad libitum. The animals were euthanized and blood samples (approximately 200 µL) were collected from the abdominal artery at 0.17, 0.5, 2, 4, 8, and 24 h after intravenous injection. The liver, kidney, brain, heart, lung, spleen, and testis were immediately excised, gently washed with ice-cold saline, and weighed. The tissue samples were homogenized with 4 volumes of saline. Aliquots (50 μL) of plasma and 20% tissue homogenates were stored at –80 °C until the analysis of compound K.
(§2) The plasma samples and 20% tissue homogenates samples were each mixed with 60 μL of IS (20 ng/mL 13C-caffeine in water) and 600 μL of MTBE. The mixtures were vortexed vigorously for 10 min and centrifuged at 16,000× g for 5 min. After centrifugation, the samples were frozen at −80 °C for 2 h. The upper layer was transferred to a clean tube and evaporated to dryness under a nitrogen stream. The residue was reconfigured with 200 μL of 80% methanol consisting of 0.1% formic acid, and a 10 μL aliquot was injected into the LC-MS/MS system.
(§3) Compound K and PPD concentrations were analyzed using a modified LC-MS/MS method of Jin et al. with an Agilent 6430 triple quadrupole LC-MS/MS system (Agilent, Wilmington, DE, USA). […]

[4] = tested on: Caco-2 cells; set-up: method as in PMID 16302287, PMID 32148404, PMID 30013338, PMID 26680316; conditions: cited from earlier work
[5] = set-up: method as in PMID 16302287, PMID 32148404, PMID 30013338, PMID 26680316; conditions: cited from earlier work
[6] = tested on: Oatp transporters; assay: Inhibition of hepatic uptake of compound K by rifampin pre-treatment in ICR mice; assay type: in vivo; conditions: rifampin 20 mg/kg PO 1 h before compound K IV 2 mg/kg, 0.5 and 2 h
Method: To investigate the effect of rifampin (a representative inhibitor of the organic anion-transporting polypeptide (Oatp) transporters) on the hepatic distribution of compound K, ICR mice and SD rats were randomly divided into either control or rifampin groups. The rifampin group was orally administered with rifampin solution (20 mg/kg, dissolved in DMSO: saline = 2:8, v/v) and the control group received only the vehicle via oral gavage. One hour after rifampin treatment, mice and rats received compound K intravenously at a single dose of 2 mg/kg via tail vein. The animals were euthanized and blood samples (approximately 200 µL) were collected from the abdominal artery at 0.5 and 2 h after intravenous injection. The liver tissues were immediately excised, gently washed with ice-cold saline, and homogenized with 4 volumes of saline. Aliquots (50 μL) of plasma and 20% liver homogenates were stored at −80 °C until the analysis of compound K.
The plasma samples and 20% tissue homogenates samples were each mixed with 60 μL of IS (20 ng/mL 13C-caffeine in water) and 600 μL of MTBE. The mixtures were vortexed vigorously for 10 min and centrifuged at 16,000× g for 5 min. After centrifugation, the samples were frozen at −80 °C for 2 h. The upper layer was transferred to a clean tube and evaporated to dryness under a nitrogen stream. […]

[7] = tested on: P-glycoprotein (P-gp); set-up: method as in PMID 22584255; conditions: single oral dose 10 mg/kg; cited from earlier work
[8] = set-up: method as in PMID 22584255, PMID 30013338, PMID 26680316; conditions: cited from earlier work
[9] = Pharmacokinetic study after intravenous compound K (2 mg/kg) in ICR mice: plasma, feces, urine; conditions: mouse
[10] = Tissue distribution study after intravenous compound K (2 mg/kg) in ICR mice; assay type: in vivo; conditions: compound K IV 2 mg/kg
Method: as §1, §2, §3

[11] = set-up: method as in PMID 28955238; conditions: humans, 200 mg compound K tablet; cited from earlier work
[12] = after compound K IV 2 mg/kg, over 48 h (Table 4)

Structure (SMILES): CC(C)=CCCC(C)(OC1OC(CO)C(O)C(O)C1O)C1CCC2(C)C1C(O)CC1C3(C)CCC(O)C(C)(C)C3CCC12C [compound K, 20-O-beta-(D-Glucopyranosyl)-20(S)-protopanaxadiol]
- AUC(0-inf) ([1]; SD, rat, plasma, iv, 2 mg/kg): 670 ± 284 ng·h/mL
- AUC(0-t) ([1]; SD, rat, plasma, iv, 2 mg/kg): 639 ± 299 ng·h/mL
- C0 ([1]; SD, rat, plasma, iv, 2 mg/kg): 75.3 ± 23.3 ng/mL
- MRT ([1]; SD, rat, plasma, iv, 2 mg/kg): 8.9 ± 0.4 h
- Vd ([1]; SD, rat, plasma, iv, 2 mg/kg): 31.8 ± 3.1 L/kg
- clearance ([1]; SD, rat, plasma, iv, 2 mg/kg): 59 ± 21.8 mL/min/kg
- half-life ([1]; SD, rat, plasma, iv, 2 mg/kg): 7.3 ± 0.4 h
- Recovery48 h Feces ([1]; rat, after compound K IV 2 mg/kg, over 48 h (Table 4)): 13.8 ± 7.1 % of Dose
- Feces48 h (fecal recovery) ([1]; rat, compound K IV 2 mg/kg, 48 h, 2 mg/kg): 13.8 % of dose and ~13.8 ± 7.1 % of dose
- CL and Vd, fold larger in rats than in mice ([1]; rats versus mice, compound K IV 2 mg/kg): about five-fold larger
- AUC increase ([2]; intravenous injection, dose range 1–10 mg/kg (dose increase 10-fold)): 11.6 fold
- AUC increase ([2]; oral administration, dose range 5–20 mg/kg (dose increase four-fold)): 75.8 fold
- AUC ratios of other tissues (kidney, heart, lung, pancreas, testis, brain) to plasma [3]: much lower than the liver/plasma AUC ratio
- Kp ([3]; male, SD, rat, liver (relative to plasma), 0.17-24 h, read-out: liver to plasma AUC ratio): 11.1
- permeability [4]: 0.5–2 × 10^−6 cm/s
- LogP value [5]: 3.85
- liver to plasma concentration ratios with rifampin pre-treatment versus control [6]: decreased
- plasma concentration of compound K with rifampin pre-treatment versus control [6]: increased
- AUC increase in P-gp knock-out mice compared to wild-type mice [7]: 23.5 fold
- aqueous solubility [8]: 33 µg/mL (≈ 53 µM)
- AUC(0-t) ([9]; ICR, plasma, iv, 2 mg/kg): 3760 ± 1640 ng·h/mL
- C0 ([9]; ICR, plasma, iv, 2 mg/kg): 400 ± 137 ng/mL
- MRT ([9]; ICR, plasma, iv, 2 mg/kg): 11.8 ± 2 h
- Vd ([9]; ICR, plasma, iv, 2 mg/kg): 7.08 ± 2.6 L/kg
- clearance ([9]; ICR, plasma, iv, 2 mg/kg): 10.4 ± 4.9 mL/min/kg
- half-life ([9]; ICR, plasma, iv, 2 mg/kg): 11.4 ± 1.5 h
- Recovery48 h Feces [9, 12]: 28.4 ± 5.9 % of Dose
- Recovery48 h Urine [9, 12]: 0.02 ± 0.01 % of Dose
- AUC ratios of other tissues (kidney, heart, lung, pancreas, testis, brain) to plasma [10]: much lower than the liver/plasma AUC ratio
- Kp ([10]; male, ICR, mouse, liver (relative to plasma), 0.17-24 h, read-out: liver to plasma AUC ratio): 16.7
- increase of AUC by high-fat meal compared with fasting group [11]: 2.2 fold
- increase of Cmax by high-fat meal compared with fasting group [11]: 2.0 fold
